Experiments:
[1] = system: bermuda grass (Cynodon dactylon (L.) Pers.); assay: Foliar treatment pot test on bermuda grass, visual growth inhibition rate (Test Example 2); format: in vivo; conditions: in Cynodon dactylon, foliar treatment at 5.0 to 7.0-leaf stage, 21st day after treatment, read-out: Growth inhibition rate (%) of bermuda grass, Measured value
Text: When the herbicidal activity in a case where two active ingredients are combined, is larger than the simple sum of the respective herbicidal activities of the two active ingredients (the expected activity), it is called a synergistic effect. The activity expected by the combination of two active ingredients can be calculated as follows (Colby S. R., “Weed”, vol. 15, p. 20-22, 1967). E=α+β-(α×β÷100) where α: growth inhibition rate when treated with x (g/ha) of herbicide X, β: growth inhibition rate when treated with y (g/ha) of herbicide Y, E: growth inhibition rate expected when treated with x (g/ha) of herbicide X and y (g/ha) of herbicide Y. Growth inhibition rate (%)=0 (equivalent to the non-treated area) to 100 (complete kill) Upland field soil was put into a 1/1,000,000 ha pot, and seeds of bermuda grass (Cynodon dactylon (L.) Pers.) were sown. When the bermuda grass reached 5.0 to 7.0-leaf stage, predetermined amounts of water dispersible granules comprising flazasulfuron as an active ingredient (trade name: […]) were diluted with water (corresponding to 1,000 L/ha) containing 0.05 vol % of an agricultural adjuvant (trade name: […]) and applied for foliar treatment by a small sprayer. On the 21st day after treatment, the state of growth of the bermuda grass was visually observed to determine the growth inhibition rate. The growth inhibition rate (%) (measured value) and the growth inhibition rate (%) calculated in the same manner as in Test Example 1 are shown in Table 2.

[2] = system: crabgrass (Digitaria sanguinalis.); assay: Foliar treatment pot test on crabgrass, visual growth inhibition rate (Test Example 1); format: in vivo; conditions: foliar treatment at 3.8 to 4.0-leaf stage, 28th day after treatment, read-out: Growth inhibition rate (%) of crabgrass, Measured value
Text: When the herbicidal activity in a case where two active ingredients are combined, is larger than the simple sum of the respective herbicidal activities of the two active ingredients (the expected activity), it is called a synergistic effect. The activity expected by the combination of two active ingredients can be calculated as follows (Colby S. […] E=α+β-(α×β÷100) where α: growth inhibition rate when treated with x (g/ha) of herbicide X, β: growth inhibition rate when treated with y (g/ha) of herbicide Y, E: growth inhibition rate expected when treated with x (g/ha) of herbicide X and y (g/ha) of herbicide Y. Upland field soil was put into a 1/1,000,000 ha pot, and seeds of crabgrass (Digitaria sanguinalis.) were sown. When the crabgrass reached 3.8 to 4.0-leaf stage, predetermined amounts of water dispersible granules comprising flazasulfuron as an active ingredient (trade name: […] manufactured by Ishihara Sangyo Kaisha, Ltd.) were diluted with water (corresponding to 300 L/ha) containing 0.1 vol % of an agricultural adjuvant (trade name: […] manufactured by NIHON NOHYAKU CO., LTD.) and applied for foliar treatment by a small sprayer. On the 28th day after treatment, the state of growth of the crabgrass was visually observed to determine the growth inhibition rate in accordance with the following evaluation standard. The growth inhibition rate (%) (measured value) and the growth inhibition rate (%) (calculated value) calculated by the Colby's formula are shown in Table 1. Growth inhibition rate (%)=0 (equivalent to the non-treated area) to 100 (complete kill)

`COc1cc(OC)nc(NC(=O)NS(=O)(=O)c2ncccc2C(F)(F)F)n1` [Flazasulfuron, 1-(4,6-dimethoxypyrimidin-2-yl)-3-(3-trifluoromethyl-2-pyridylsulfonyl)urea] showed an inhibition at 10 g/ha [1] of 0%, an inhibition at 200 g/ha ([1]; dose 200 g/ha) of 45% and an inhibition at 12.5 g/ha ([2]; dose 12.5 g/ha) of 87%.

For `COc1cc(OC)nc(NC(=O)NS(=O)(=O)c2ncccc2C(=O)N(C)C)n1` [Nicosulfuron, 2-(4,6-dimethoxypyrimidin-2-ylcarbamoylsulfamoyl)-N,N-dimethylnicotinamide], the inhibition at 10 g/ha [1] was 8%, the inhibition at 150 g/ha ([1]; dose 150 g/ha) was 90% and the inhibition at 15 g/ha ([2]; dose 15 g/ha) was 7%. For the same compound, the inhibition at 40 g/ha ([2]; dose 40 g/ha) was 22%.

Source: patent US8673815B2, “Herbicidal composition” (Ishihara Sangyo Kaisha, Ltd., priority 2010, dated 2014)
